Test results as given in patent US9862713B2, “Substituted bicyclic heteroaryl compounds as RXR agonists” (CONNEXIOS LIFE SCIENCES PVT. LTD., priority 2014, dated 2018).

Experiments:
[1] = tested on: hRXR α, β, or γ; assay: Transactivation assay (RARE-Luc dual luciferase reporter in HEK-293 cells), activity relative to LG268; format: cell-based, human; details: 24 h, luciferase activity expressed relative to LG268
Summary of the method: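 HEK-293 cells co-transfected with hRXR α, β or γ expression vector, RARE-firefly luciferase and renilla luciferase; 24 h later treated with agonist (100 nM, 300 nM, 1 uM) for 24 h. Firefly signal normalized to renilla; activity expressed relative to the RXR agonist LG268.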

[2] = tested on: MIA PaCa-2 cells; assay: ROS level (DCFH-DA probe) in MIA PaCa-2 cells; format: cell-based; details: 4 days treatment
Protocol: To assess the impact of Compound 40 on ROS level, the cells were exposed to ROS indicator probe (DCFH-DA) for 1 h. ROS induced increase in DCF fluorescence was estimated at 485 nm excitation and 528 nm emission. ROS levels were normalized to cellular DNA levels which were measured by using bis-benzamide fluorescence at 360 nm excitation and 460 nm emission. The ROS levels are represented at % of control. […] Over-expression of RXRa further augmented the ROS levels.

[3] = tested on: male ZDF rats; assay: Effect of RXR agonist on male ZDF rats; format: in vivo; details: 10 mg/kg, BID, po
Protocol: Five week old male ZDF rats from Charles River & age matched control rats were housed under temperature 22±3° C., relative humidity 50-70%, 12 hour light and 12 hour dark cycle with artificial fluorescent tubes. The animals were housed in a group of 3 in standard polypropylene cages with stainless steel top grill having facilities for pelleted food and drinking water in bottle. The animals were fed with normal chow diet (Provomi), Bisleri, commercially available mineral drinking water was provided ad libitum. The lean control and the male […] rats were randomized to either vehicle or drug (Compound 40, 10 mg/kg, BID, po) treatment groups by body weight, fed glucose and glucose. The treatment was continued for 8 weeks. Body weight, fasting and fed glucose and fast triglycerides (tail snip) were monitored weekly. At the end of week 8 of the treatment, glucose and insulin HbAlc levels were followed at different time intervals. Blood samples collected from tail nipping method HbAlc levels by DCA vantage (SIEMENS).
Measurement of Nerve conduction velocity: Nerve conduction velocity was measured using Electronic stimulator connected to AD Power Lab 8/30, AD instruments. Briefly animals were anaesthetized and three different electrodes (+ve, −ve and neutral) were connected from Bio amp to animal. +ve electrode was placed on front side of fourth finger on hind paw, −ve electrode was placed just above +ve electrode at a distance of 10 mm and neutral electrode was placed on abdomen region. Voltage at a rate of 5 mv with pulse width of 0.001 sec was provided on two different regions at a distance of 1 cm on sciatic nerve. Nerve conduction was recorded using Lab chart software in scope view panel. Latencies at two different points were measured by taking the mouse cursor at the beginning of peaks. […] Measurement of Hemodynamic Parameters by Using Millar MPVS System:
At the end of 22 weeks of treatment period animal were subjected to hemodynamic measurement using Millar MPVS system, briefly animal was anesthetized using urethane and all surgical procedure was done on thermal plate, both jugular vein and carotid artery was cannulated in which jugular vein was used for saline calibration whereas rat millar Cather was introduced into left ventricle through carotid artery was be used for recording the Pressure volume loop. Blood was withdrawn from the tail vein puncture by pricking with needle into pre-filled EDTA tubes, mix and placed on ice immediately, centrifuge at 10000 rpm for 10 minutes using cold centrifuge. The plasma separated was subjected for estimation of ANP, BNP, Osteprotegerin Using USCN kit and Serum urea and BUN using Robonik kit.

[4] = tested on: DIO mice; assay: Effect of RXR agonist on DIO mice (high fat diet); format: in vivo, male C57BL/6J mice
Protocol: Six week old male C57BL/6J mice were selected, acclimatized for a period of 1 week, Animals were assigned to either chow (10% kcal from fat) or high fat diet (HFD) (D12492; 60% kcal from fat), Research Diets, Inc., New Jersey, USA. Animals were housed in polypropylene cages and maintained at 23±1° C. at 60±10% humidity and 12 hour cycles of light and dark with free access to feed and water (ad libitum). After 11 weeks of the diet intervention, the HFD fed animals were assigned to specific treatment groups based upon body weight, glucose AUC during OGTT, fasting and fed blood glucose and fasting TG. The lean control mice (n=10) were fed with normal chow diet while the treatment group (n=10) and HFD Control (n=10) with high fat diet throughout the experimental period. Treatment group received Compound 40 at a dose of 5-20 mg/kg b.wt, once daily, po as suspension in 1% MC (methyl cellulose) as vehicle. Lean control and HFD controls animals were administered with vehicle.
Weekly body weight & daily feed consumption was recorded. The blood collected from tail vein was subjected for estimation of glucose and TG using Co-agucheck TG strip. OGTT was performed in 6 h fasted mice with 2 g/kg, of oral glucose challenge after 9 weeks of treatment.
Measurement of Thermogenesis: Body temperatures were assessed at the end of treatment period using a rectal probe. For the cold exposure experiment, mice were housed individually and transferred to a cold environment with an ambient temperature of 4° C. Temperature was measured every 15 min for 75 min and then brought to room temperature, then rectal temperature was measured for further 20 min with 10 min interval. After 10 weeks of treatment, blood was collected, from retro-orbital bleeding, for biochemical measurements. Then animals were euthanized and necropsied, the liver was excised immediately, weighed and taken to estimate liver triglyceride (TG). Different adipose depots were separated and weighed.
Animals were sacrificed after terminal measurement of fasting glycerol, free fatty acid, cholesterol, LDL levels.

[5] = 5-20 mg/kg b.wt, once daily, po
[6] = 5-20 mg/kg b.wt, once daily, po, 10 weeks
[7] = 5-20 mg/kg b.wt, once daily, po, OGTT after 9 weeks

- hypertriglyceridemia ([3]; fasting TG during treatment and there after): does not cause hypertriglyceridemia
SMILES: CC1(C)CCC(C)(C)c2sc(N(CC3CC3)c3ccc(C(=O)O)cn3)nc21 [Compound 40, 6-[(Cyclopropylmethyl) (4,4,7,7-tetramethyl-4,5,6,7-tetrahydro-1,3-benzothiazol-2-yl)amino]pyridine-3-carboxylic acid]
- Activity at 300 nM ([1]; compound at 300 nM): ***** (>0.6)
- Activity at 1 µM ([1]; compound at 1 µM): **** (>0.9 to <1)
- ROS levels [2]: significant augmentation of stress levels
- CRP levels [3]: decreasing CRP levels
- HbAlc levels [3]: very significant improvement
- activity of SDH (glucose oxidation in muscle) [3]: significantly increased the activity of SDH
- fasting TG levels [3]: significantly reduces fasting TG levels
- fasting glucose [3]: significant control of Fasting glucose
- glucose disposal [3]: improves glucose disposal
- hyperinsulinemia (insulin levels) [3]: significantly reduced hyperinsulinemia
- levels of biomarkers of Cardio vascular risk [3]: improvement in levels of biomarkers of Cardio vascular risk
- prandial hyperglycemia (fed glucose) [3]: both an early onset and sustained control of prandial hyperglycemia
- Cardiac function ([3]; Millar MPVS hemodynamic measurement): Substantial improvement
- BUN levels ([3]; end of 22 weeks): Substantial decrease
- Serum Creatinine levels ([3]; end of 22 weeks): Substantial decrease
- Nerve conduction velocity (NCV) ([3]; sciatic nerve): Significant improvement
- HOMA-IR [4, 5]: improves HOMA-IR
- UCP1 expression levels in inguinal white adipose tissues [4, 5]: significantly enhances
- circulating free fatty acid levels [4, 5]: significant decrease
- circulating glycerol levels [4, 5]: significant decrease
- ectopic fat accumulation [4, 5]: without increasing ectopic fat accumulation
- fasting TG [4, 5]: significantly reduces fasting TG
- fed cholesterol levels [4, 5]: significantly reduces fed cholesterol levels
- adipose depot weights [4, 6]: decrease in various adipose depot weights
- body weight gain [4, 6]: significantly reduced body weight gain
- glucose disposal (OGTT) [4, 7]: improves glucose disposal
- hyperinsulinemia (insulin levels) [4, 7]: significantly reduces hyperinsulinemia
- non-shivering thermogenesis ([4]; cold exposure 4° C., rectal temperature): significantly enhances non-shivering thermogenesis
